Source: patent US20240180895A1, “USE OF KAPPA OPIOID RECEPTOR AGONISTS TO TREAT CARDIOVASCULAR DISEASE” (Board of Supervisors of Louisiana State University and …, priority 2021, published 2024)

Legend:
Format in all cases: in vivo, rat
[1] = system: conscious Sprague-Dawley rats; experiment: Acute cardiovascular and renal excretory studies, i.v. bolus (Example 3); conditions: for Effect on heart rate (HR) / Effect on MAP / Potassium concentration [K+] in cumulative urine / Sodium concentration [Na+] in cumulative urine / Urine osmolality / Total urine output: i.v. bolus; for Effect on heart rate (HR) / Effect on MAP: 90-min protocol; for Effect on MAP: diuretic alone; for Potassium concentration [K+] in cumulative urine / Sodium concentration [Na+] in cumulative urine / Urine osmolality: cumulative 90-min urine, same doses; for Potassium concentration [K+] in cumulative urine / Sodium concentration [Na+] in cumulative urine / Urine osmolality / Total urine output: mean±SEM; for Total urine output: cumulative urine of 90-min protocol, nalfurafine 5 μg kg−1, furosemide 7.5 mg kg−1, HCTZ 2.5 mg kg−1, amiloride 2 mg kg−1, n=6
Protocol: (§1) Animals: Male Sprague-Dawley (SD) rats (Envigo Labs, Indianapolis, IN), 300-350 g, were individually housed under a 12 h light-dark cycle and allowed tap water and standard rodent diet ad libitum. Rats were randomly assigned to experimental groups for all acute and subacute studies. All procedures were approved by the Louisiana State University Health Sciences Center Institutional Animal Care and Use Committee and conducted in accordance with the National Institutes of Health guidelines for the care and use of animals.
Surgical Procedures: Aseptic technique was followed for all surgical procedures. On the morning of the experiment, rats were anesthetized with and maintained under inhaled 2% isoflurane, and polyethylene catheters (PE50; BD Diagnostics, Sparks, MD) were surgically inserted into the left femoral vein and left femoral artery for the infusion of saline and/or drug administration and the recording of arterial blood pressure, respectively. Subsequently, a suprapubic incision was made and a flanged polyethylene catheter (PE240; BD Diagnostics, Sparks, MD) was inserted into the bladder, exteriorized, and sutured to surrounding muscle and skin. Rats were then placed in an elevated restrainer (Krowicki & Kapusta, 2011) to recover from surgery and allow collection of urine. When acute experimental protocols were completed, rats were anesthetized via isoflurane and decapitated.
Acute Cardiovascular and Renal Excretory Studies: Following surgery, rats received an i.v. infusion of isotonic saline at 55 μL min^−1 throughout the duration of the experiment and were allowed 4-6 hours to recover from anesthesia. Arterial catheters were connected to a pressure transducer (MLT0670, ADInstruments, Sydney, Australia), which was connected to Powerlab 8/30 (ADInstruments) for recording of pulsatile and mean arterial blood pressure (MAP) and heart rate (HR). Blood pressure and HR were visualized using LabChart software (v8.1.5; ADInstruments). […] Following this control period, drug or vehicle (isotonic saline) was injected into the femoral vein catheter at a volume of 2 cc kg^−1, and urines were collected in 10 minute periods for a span of 90 minutes. […] All groups are n=6. Urine volume was measured gravimetrically, urine sodium and potassium concentrations were measured using flame photometry (model 943; Instrumentation Laboratories, Lexington, MA), and urine osmolality was measured using a vapor pressure osmometer (model 5600; WESCOR, Logan, UT).
(§2) Experimental Design and Analysis: All results are expressed as mean±SEM. […] Means between groups for total urine output, Na^+ concentration, K^+ concentration, and urine osmolality were compared using a Student's t-test. Statistical significance was characterized as P<0.05. Statistics were carried out using Prism 7.05 software (GraphPad Software, Inc., San Diego, CA) and IBM SPSS Statistics (IBM, Armonk, NY).

[2] = system: conscious Sprague-Dawley rats; experiment: Metabolic cage renal excretory studies, oral gavage (Example 3); conditions: oral gavage, mean±SEM; for Potassium concentration [K+] in cumulative urine / Sodium concentration [Na+] in cumulative urine: cumulative 5-hour urine, same doses; for Total urine output: cumulative urine of 5-hour protocol, nalfurafine 150 μg kg−1, furosemide 50 mg kg−1, HCTZ 5 mg kg−1, amiloride 5 mg kg−1, n=6
Protocol: as §1
Metabolic Cage Renal Excretory Studies: Rats were placed in metabolic cages (model 18cv, Fenco, Cataumet, MA) for 2 hours to allow for acclimation and voiding of residual urine. Following the acclimation period, rats were volume loaded with 20 cc kg^−1 drug or vehicle (isotonic saline) via oral gavage. Urines were collected each hour over a 5-hour period. Following completion of the study rats were returned to their home cages. […] These points are marked on the figures with number of measurements in parentheses.
as §2

[3] = system: conscious Sprague-Dawley rats; experiment: Acute cardiovascular and renal excretory studies with ICV or IV norBNI pretreatment (Example 4); conditions: for Urine osmolality / Urine potassium concentration [K+] / Urine sodium concentration [Na+]: total 90-min urine
Protocol: Male Sprague-Dawley rats (Envigo Labs, Indianapolis, IN) were individually housed, allowed tap water and standard rodent diet ad libitum, and kept under a 12-hour light-dark cycle. Rats used in these experiments weighed between 300 and 350 grams and were randomly assigned to experimental groups. All procedures were conducted in accordance with the National Institutes of Health guidelines for the care and use of animals and approved by the Louisiana State University Health Sciences Center Institutional Animal Care and Use Committee.
Aseptic technique was adhered to for all surgeries and detailed surgical methods were followed as previously described.^14 Briefly, 3-5 days before experimentation, rats requiring central ventricle access for administration of drug/vehicle into the brain were anesthetized with ketamine and xylazine and a stainless-steel cannula was stereotaxically implanted into the right lateral cerebral ventricle.^14
On the morning of the experiment, rats were anesthetized and maintained with inhaled 2% isoflurane, and polyethylene catheters were surgically placed into the left femoral artery, left femoral vein, and urinary bladder.^15.16 Following surgery, rats were placed in an elevated restrainer for recovery and collection of urine from an indwelling bladder catheter.^15 After completion of experimental protocols, rats were anesthetized with isoflurane and decapitated.
During stabilization of cardiovascular and renal excretory parameters, rats received an isotonic saline infusion (55 μl/min), which lasted throughout the duration of the experiment. To record mean arterial pressure (MAP) and heart rate (HR), arterial catheters were connected to a pressure transducer (MLT0670, ADInstruments, Sydney, Australia), which was connected to Powerlab 8/30 (ADInstruments) and visualized using LabChart software (v8.1.5; ADInstruments). After one hour of recovery from surgery, rats were pretreated with the KOR antagonist norBNI or isotonic saline vehicle through either an intracerebroventricular (ICV) catheter or intravenous (IV) catheter. […] Next, drug or vehicle (isotonic saline) was injected into the femoral vein and urine samples were collected every 10 minutes during a 90-minute experimental period. The following drug concentrations were used: nalfurafine 5 μg/kg, difelikefalin 10 μg/kg, norBNI 30 mg/kg (IV), norBNI 1 μg/5 μL (ICV). All groups are n=6. Urine sodium and potassium were measured using a flame photometer (model 943; Instrumentation Laboratories, Lexington, MA). Urine volume was measured gravimetrically, and urine osmolality was measured using a vapor pressure osmometer (model 5600; WESCOR, Logan, UT).
All results are expressed as mean±SEM. For determining statistically different changes at time points within a treatment group, means were compared to the control value using 2-way ANOVA with repeated measures and a post hoc Dunnett test following confirmation of a significant F value. For statistically different changes at individual time points between treatment groups, mean values were compared using 2-way ANOVA with repeated measures and a post hoc Sidak test following confirmation of a significant/value. For means between groups for total urine output, urine sodium concentration, urine potassium concentration, and urine osmolality, a Student/test was used. Statistical significance was characterized as P<0.05 and statistics were performed on Prism 7.05 software (GraphPad Software, Inc, San Diego, CA).

Sprague-Dawley rats = experiment: Prevention of diuretic resistance to once daily furosemide by difelikefalin, 24-hour urine (FIG. 14); conditions: difelikefalin 20 μg/kg IP added to furosemide 10 mg/kg once daily
Protocol: (§3) Male Sprague-Dawley rats were placed in individual metabolic cages in a room with 12-hour automatic light on/off control and allowed tap water and rodent chow ad libitum. Over the next two (2) days (control period), rats were administered vehicle (5% NaOH; 1 M PBS, IP) in the morning (9:00 am) and urine was then collected for 24-hours.

[4] = system: Sprague-Dawley rats placed on a low-salt diet; experiment: Reversal of furosemide diuretic resistance by difelikefalin in rats on a low sodium diet (FIG. 16); conditions: difelikefalin 20 μg/kg IP added on days 13-17, low sodium diet
Protocol: as §3, with “water. For these studies, rats were placed on a low-salt diet (0.1% NaCl) for one week prior to” for “water”, “throughout” for “rodent chow ad libitum. Over”, “experimental protocol. […] For the first” for “next”, “5-hours.” for “24-hours.”

[5] = ICV norBNI (1 μg/5 μL) pretreatment
[6] = IV norBNI (30 mg/kg) pretreatment
[7] = difelikefalin 10 μg/kg IV, no pretreatment

Compound: NS(=O)(=O)c1cc2c(cc1Cl)NCNS2(=O)=O [HCTZ, hydrochlorothiazide]
- Duration of the increase in urine flow rate above control ([1]; after i.v. bolus): returned to baseline levels by 50-min
- Effect on heart rate (HR) [1]: did not produce any changes in MAP or HR
- Effect on MAP [1]: did not produce any changes in MAP or HR
- Potassium concentration [K+] in cumulative urine [1]: 14.76±3.12 μeq ml^−1
- Sodium concentration [Na+] in cumulative urine [1]: 155.6±8.04 μeq ml^−1
- Urine osmolality [1]: 439.3 ± 15.94 mmol/kg
- Total urine output [1]: 9.22 ± 0.50 mL
- Potassium concentration [K+] in cumulative urine [2]: 26.50±1.91 μeq ml^−1
- Sodium concentration [Na+] in cumulative urine [2]: 119.70±3.04 μeq ml^−1
- Total urine output [2]: 14.55 ± 0.57 mL

Compound: N=C(N)NC(=O)c1nc(Cl)c(N)nc1N [amiloride]
- Duration of the increase in urine flow rate above control ([1]; after i.v. bolus): 30 min
- Time of peak diuresis (urine flow rate) ([1]; after i.v. bolus): 10 min
- Effect on heart rate (HR) [1]: Heart rate did not change
- Effect on MAP [1]: minimal effects on MAP
- Potassium concentration [K+] in cumulative urine [1]: 0.85±0.19 μeq ml^−1
- Sodium concentration [Na+] in cumulative urine [1]: 137.60±6.01 μeq ml^−1
- Urine osmolality [1]: 398.3 ± 18.05 mmol/kg
- Total urine output [1]: 8.42 ± 0.40 mL
- Potassium concentration [K+] in cumulative urine [2]: 4.02±0.54 μeq ml^−1
- Sodium concentration [Na+] in cumulative urine [2]: 130.9±5.32 μeq ml^−1
- Total urine output [2]: 8.61 ± 0.63 mL

Compound: Oc1ccc2c3c1O[C@H]1c4[nH]c5c(c4C[C@@]4(O)[C@@H](C2)N(CC2CC2)CC[C@]314)C[C@@]1(O)[C@H]2Cc3ccc(O)c4c3[C@@]1(CCN2CC1CC1)[C@H]5O4 [norBNI, norbinaltorphimine]
- Effect of norBNI pretreatment on the diuresis ([3]; norBNI 1 μg/5 μL ICV before difelikefalin 10 μg/kg IV): significantly attenuated the peak increase and duration of the difelikefalin-induced diuresis
- Effect of norBNI pretreatment on the diuresis ([3]; norBNI 1 μg/5 μL ICV before nalfurafine 5 μg/kg IV): markedly attenuated
- Effect of norBNI pretreatment on the diuresis ([3]; norBNI 30 mg/kg IV before difelikefalin 10 μg/kg IV): completely blocked the diuresis
- Effect of norBNI pretreatment on the diuresis ([3]; norBNI 30 mg/kg IV before nalfurafine 5 μg/kg IV): nearly abolished

Compound: Difelikefalin
- Effect on HR [3, 5]: No changes in HR
- Effect on MAP [3, 5]: no significant change in MAP
- Total urine output ([3]; ICV norBNI (1 μg/5 μL) pretreatment, difelikefalin 10 μg/kg or nalfurafine 5 μg/kg IV, 90 min): 5.49 ± 0.75 mL
- Urine osmolality [3, 5]: 280 ± 26.99 mmol/kg
- Urine potassium concentration [K+] [3, 5]: 13.63±3.05 μeq/mL
- Urine sodium concentration [Na+] [3, 5]: 47.92±8.30 μeq/mL
- Total urine output ([3]; ICV vehicle (5 μL) pretreatment, difelikefalin 10 μg/kg or nalfurafine 5 μg/kg IV, 90 min): 9.64 ± 0.52 mL
- Effect on HR ([3]; ICV vehicle pretreatment): No changes in HR
- MAP peak Δ ([3]; ICV vehicle pretreatment, peak at 60 min (difelikefalin), 50 min (nalfurafine)): −4 mmHg
- Urine osmolality ([3]; ICV vehicle pretreatment): 170.7 ± 12.04 mmol/kg
- Urine potassium concentration [K+] ([3]; ICV vehicle pretreatment): 8.16±1.81 μeq/mL
- Urine sodium concentration [Na+] ([3]; ICV vehicle pretreatment): 45.24±6.67 μeq/mL
- Effect on HR [3, 6]: slight but statistically significant increases in HR
- MAP peak Δ ([3]; IV norBNI (30 mg/kg) pretreatment, 80-minute peak for difelikefalin): −4.5 mmHg
- Total urine output ([3]; IV norBNI (30 mg/kg) pretreatment, difelikefalin 10 μg/kg or nalfurafine 5 μg/kg IV, 90 min): 4.44 ± 0.28 mL
- Urine osmolality [3, 6]: 515 ± 35.8 mmol/kg
- Urine potassium concentration [K+] [3, 6]: 27.78±5.35 μeq/mL
- Urine sodium concentration [Na+] [3, 6]: 140.4±10.7 μeq/mL
- Total urine output ([3]; IV vehicle (2 cc/kg) pretreatment, difelikefalin 10 μg/kg or nalfurafine 5 μg/kg IV, 90 min): 9.49 ± 0.30 mL
- Effect on HR ([3]; IV vehicle pretreatment): slight but statistically significant increases in HR
- MAP peak Δ ([3]; IV vehicle pretreatment, peak at 70 min (difelikefalin), 60 min (nalfurafine)): −11 mmHg
- Urine osmolality ([3]; IV vehicle pretreatment): 161.2 ± 9.98 mmol/kg
- Urine potassium concentration [K+] ([3]; IV vehicle pretreatment): 5.66±1.04 μeq/mL
- Urine sodium concentration [Na+] ([3]; IV vehicle pretreatment): 38.93±4.01 μeq/mL
- Duration of the increase in urine flow rate [3, 7]: 50 min
- Effect on HR [3, 7]: Neither IV saline nor difelikefalin altered HR
- Time of peak diuresis [3, 7]: 30 min
- Total urine output ([3]; difelikefalin 10 μg/kg IV, no pretreatment (FIG. 9B), 90-minute period, mean±SEM, n=6): 10.62 ± 0.47 mL
- Urine osmolality [3, 7]: 169.70 ± 13.89 mmol/kg
- Urine potassium concentration [K+] [3, 7]: 5.53±0.63 μeq/mL
- Urine sodium concentration [Na+] [3, 7]: 32.22±6.48 μeq/mL
- Effect on diuretic resistance to furosemide (Sprague-Dawley rats): prevents the diuretic resistance
- Effect on established diuretic resistance to furosemide [4]: rescues the established diuretic resistance
